Results taken from paper PMC7934871 (JCI Insight, 2021).

Legend:
pY705-STAT3 = experiment: IL-6–induced pY705-STAT3 in splenic CD8+ T cells, Western blotting; assay type: cell-based; settings: mouse splenic CD8+ T cells
STAT3 = STAT3 (Homo sapiens, UniProt P40763); experiment: Immunoprecipitation and Western blotting, STAT3; assay type: binding; design: endogenous in cells; host or cells: U251; settings: immunoprecipitation, Western blotting, U251 cells
Description: Figure 2 PS-acet.-STAT3-peptide specifically binds STAT3 in the nucleus. (A) Penetration of PS-acet.-STAT3 peptide and its colocalization with STAT3 protein in U251 cells are confirmed by confocal microscopy. Scale bars: 50 μm. Insets: original magnification, ×40. (B) PS-acet.-STAT3 peptide specifically binds to STAT3 protein, not STAT1 and STAT5 proteins, shown in U251 cells by immunoprecipitation followed by Western blotting (left panel). Expression of total STAT1, STAT3, and STAT5 was confirmed by Western blotting in U251 cells (input protein level, right panel).
Whole cell lysates or tissue homogenates were prepared by using RIPA lysis buffer (50 mM Tris at pH 7.4, 150 mM NaCl, 1 mM EDTA, 0.5% NP-40, 1 mM NaF, 15% glycerol, and 20 mM β-glycerophosphate). […] Protein amounts were determined by BCA using a Thermo Fisher Scientific kit. […] The protein levels for STAT1 (sc-346, E-23), STAT3 (sc-482, C-20), STAT5 (sc-74442, A-9), Crm1 (exportin 1) (sc-5595, H-300), CAS (exportin 2) (sc-271537, H-2), exportin 5 (sc-66885, H-300), and exportin 7 (sc-98639, H-82) were determined using antibodies from Santa Cruz Biotechnology Inc. Anti–exportin 3 (exportin T, 630622, LOS1 05-1525), anti–exportin 4 (3499-1), and anti–exportin 6 (11408-1-AP) were from MilliporeSigma, Epitomics, and Proteintech, respectively. […]

HCT116 cells [1] = assay type: cell-based, human
Experimental: Bis-(1,3-Dibutylbarbituric Acid) Trimethine Oxonol [DiBAC4(3)]
Supplemental Figure 3 (related to Figure 1). The potential mechanism of PS-oligo
mediated cell penetration.
penetration was assessed by flow cytometry. SD is shown. Unpaired student t-test. ****
P< 0.001. Data shown is the representative of 3 independent experiments.
(B) HCT116 cells were pre-treated with a variety of endocytosis inhibitors prior to
treating with FAM-labeled PS-acet.-STAT3 peptide. The graph represents the statistical
analysis of the fluorescence intensity (M.F.I) of FAM-labeled peptide shown in A. SD is
shown. n= 5 independent experiments. Unpaired student t-test. **** P< 0.001.
(C) Polarization of cell membrane contributes to penetration of PS-acet.-STAT3
peptide. Cell membrane was depolarized by adding 120 mM KCl to HCT116 for 2.5 h,
followed by incubation with the peptide (upper panel). Data is representative of 4
independent experiments. Depolarization of the cell membrane was confirmed by
applying 2.5 mM DiBAC4(3) to other cells (lower panel). n= 3 independent experiments.
Penetration was assessed by flow cytometry. The right panels show the mean of
fluorescence intensity (M.F.I) quantified by FlowJo software. SD is shown. Unpaired
student t-test. *, P<0.05; *** P< 0.005.
Aftabizadeh and Li et al., Figure S3

pY694-STAT5 = experiment: Western blotting of p-STAT5 in HCT116 cells; assay type: cell-based, human; settings: HCT116, 1 µM, 48 hours
Experimental: Whole cell lysates or tissue homogenates were prepared by using RIPA lysis buffer (50 mM Tris at pH 7.4, 150 mM NaCl, 1 mM EDTA, 0.5% NP-40, 1 mM NaF, 15% glycerol, and 20 mM β-glycerophosphate). A protease inhibitor cocktail (Mini Protease Inhibitor Cocktail; Roche) and a tyrosine phosphatase inhibitor, sodium orthovanadate (Na3VO4, 1 mM), were added freshly to the lysis buffer. Protein amounts were determined by BCA using a Thermo Fisher Scientific kit. Normalized protein amounts were subjected to an SDS-PAGE and transferred onto a nitrocellulose membrane for Western blotting. Proteins were visualized with a chemiluminescent detection kit (Pierce, Thermo Fisher Scientific). The protein levels for STAT1 (sc-346, E-23), STAT3 (sc-482, C-20), STAT5 (sc-74442, A-9), Crm1 (exportin 1) (sc-5595, H-300), CAS (exportin 2) (sc-271537, H-2), exportin 5 (sc-66885, H-300), and exportin 7 (sc-98639, H-82) were determined using antibodies from Santa Cruz Biotechnology Inc. Anti–exportin 3 (exportin T, 630622, LOS1 05-1525), anti–exportin 4 (3499-1), and anti–exportin 6 (11408-1-AP) were from MilliporeSigma, Epitomics, and Proteintech, respectively. […]
Supplemental Figure 4 (related to Figure 1). […] Phosphorylation of STAT3 at Y705 and STAT5 at Y694 was detected by Western blotting after 48 hours treatment of PS-acet.-STAT3 peptide (1 µM) or napabucasin (1 µM) in HCT116 cells. […]

HCT116 cells [2] = experiment: Cell proliferation assay (CellTiter-Glo); assay type: cell-based, human; settings: HCT116, 10 μg/mL (approximately 1 μM) every day, day 7, CellTiter-Glo
Description: Figure 3 PS-acet.-STAT3 peptide inhibits STAT3 activity and downregulates the expression of STAT3 targets. (A) Downregulation of STAT3 activity and its downstream target proteins shown in human HCT116 colorectal cancer cells by Western blotting (data represent 1 of the 3 experiments, n = 3). PO-acet.-STAT3 and PS-STAT3-K685R peptides were used in parallel as controls. (B) STAT3 inhibition regulated the expression of proliferation and apoptotic genes, assessed by real-time quantitative PCR. Data present mean ± SD, n = 3 independent experiments, 1-way ANOVA; ***P < 0.005; **P < 0.01. […] For p53 promoter assay, data represent 3 replicates in 3 independent experiments (n = 9). For cell proliferation assay, data represent 3 independent experiments. SD is shown (n = 3). One-way ANOVA; ***P < 0.005; **P < 0.01.
HCT116 cells were seeded in a 96-well plate at a density of 6000/well. Starting the following day, cells were treated every day with 10 μg/mL (approximately 1 μM) PO- or PS-peptides. On day 7, cell proliferation was measured based on ATP production using bioluminescence detection kit for ATP measurement (CellTiter-Glo, Promega), according to manufacturer’s instruction.

Sequence of STAT3 (P40763 whole entry): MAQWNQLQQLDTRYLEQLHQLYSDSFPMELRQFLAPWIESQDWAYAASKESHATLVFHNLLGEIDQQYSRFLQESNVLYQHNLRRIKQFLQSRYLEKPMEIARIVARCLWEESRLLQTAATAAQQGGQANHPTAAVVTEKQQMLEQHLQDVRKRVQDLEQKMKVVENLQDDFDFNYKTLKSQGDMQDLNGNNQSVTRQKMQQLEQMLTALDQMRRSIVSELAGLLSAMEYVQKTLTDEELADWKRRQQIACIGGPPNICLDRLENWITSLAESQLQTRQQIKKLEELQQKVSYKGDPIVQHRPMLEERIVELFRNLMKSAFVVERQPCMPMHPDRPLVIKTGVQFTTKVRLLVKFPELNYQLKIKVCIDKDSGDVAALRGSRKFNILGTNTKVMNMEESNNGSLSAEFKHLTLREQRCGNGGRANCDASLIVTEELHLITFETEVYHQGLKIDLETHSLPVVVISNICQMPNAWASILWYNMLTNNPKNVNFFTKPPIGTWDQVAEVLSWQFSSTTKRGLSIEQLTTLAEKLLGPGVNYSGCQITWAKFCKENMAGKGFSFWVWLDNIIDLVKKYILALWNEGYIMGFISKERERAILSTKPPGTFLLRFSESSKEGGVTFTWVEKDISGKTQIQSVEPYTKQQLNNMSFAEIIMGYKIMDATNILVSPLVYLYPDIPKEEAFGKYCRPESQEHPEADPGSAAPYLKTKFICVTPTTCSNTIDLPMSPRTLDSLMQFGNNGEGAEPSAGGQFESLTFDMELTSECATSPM

## PDIPKEEAFGK685(Ac)YCRPESQEHPC-linker-T*C*C*A*T*G*A*G*C*T*T*C*C*T*G*A*T*G*C*T [PS-acet.-STAT3 peptide]
pY705-STAT3
  IL-6–induced STAT3 activation (pY705 phosphorylation) in CD8+ T cells: downregulated
STAT3
  binding to STAT3 protein: specifically bound
HCT116 cells [1]
  peptide penetration in presence of dextran sulfate: partially
pY694-STAT5
  p-STAT5 (Y694) level: not
HCT116 cells [2]
  cell proliferation: decrease
